# Assay results: US20180244653A1, “SELECTIVE ALPHA-7 NICOTINIC RECEPTOR AGONISTS AND METHODS FOR MAKING AND USING THEM” (THE REGENTS OF THE UNIVERSITY OF CALIFORNIA, priority 2015, published 2018)
# How the values were obtained:
# Type in all cases: in vivo
# [1] = system: scopolamine-induced amnesic mice; test: Water maze test; settings: i.p., IND8 25 and 50 μmol/kg, QND8 25 μmol/kg
# Experimental: The water maze test, a model for spatial learning and reference memory, related to function in the hippocampus, was also used as a study model in which mice locate a hidden platform after training session. Mice were trained to locate a hidden platform until a steady state measured by a shortened escape latency time was reached.
# The average swimming time in a target quadrant where the platform had previously been placed was measured in the test day, day 8 (FIG. 25).
# FIG. 25 illustrates the average swimming time in the target quadrant of water maze test. Data are presented in means±SE. IND8, QND8, PNU-282987, vehicle (15% Tween80, SH) and tacrine (TC) were injected 1 h and scopolamine (SC) 30 min before testing, respectively.
# A black circular tank (diameter 70 cm; height 28 cm) was divided into 4 quadrants with a removable escape platform (6×7.5×14 cm) centered in a target quadrant. The tank was filled with water to 15 cm height and the platform was located 1 cm below the water surface.
# Mice were trained from 5-7 days to get the steady state of escape latency. During day 1 to 5, each mouse was trained to swim from each quadrant with 1 min maximum time and allowed to stay on the platform for 10 sec. The mouse is placed on the platform for 10 s if it cannot find the hidden platform within 1 min. The escape latency time from each quadrant was measured. […] The probe test began when the escape latency time reached the steady state. The platform was removed and time spent in the target quadrant was measured. On the next day, all conditions were the same as probe test, but the platform was brought back to remind the mice of the target quadrant location. All mice were injected with test compounds 1 h and scopolamine 30 min before testing. The swimming time in the target quadrant was measured.
# [2] = system: scopolamine-induced amnesic mice; test: Modified Y-maze test; settings: i.p. 1 h before, scopolamine 1 mg/kg, doses as in the sentence
# Experimental: The modified Y-maze test was performed to evaluate spatial working memory. The experiment was divided into 3 sessions; (i) IND8 at 5, 10, and 50 μmol/kg or 1.5, 2.9, and 14.7 mg/kg doses, (ii) QND8 at 5, 10, and 50 μmol/kg or 1.4, 2.7, 13.5 mg/kg doses, and (iii) IND8 and QND8 at dose of 25 μmol/kg or 7.3 and 6.8 mg/kg, respectively and PNU-282987 at […] or 3, 10 mg/kg doses.
# FIG. 21 illustrates the percentage of unfamiliar arm exploration in modified Y-maze of IND8 (FIG. 21A), QND8 (FIG. 21B), and IND8, QND8, PNU-282987 (FIG. 21C). IND8, QND8, PNU-282987, vehicle (15% Tween80, SH) and tacrine (TC) were injected 1 h and scopolamine (SC) 30 min before sample phase, respectively. Each mouse was placed at the end of one arm and allowed to access 2 arms of Y-maze for 5 min in sample phase. After a 30 min period, the mouse was allowed to explore 3 arms for 5 min. The number of entries for each arm was recorded and the percentage of unfamiliar arm exploration was calculated. Data represented in means±standard errors (SE).
# Male ICR mice (6-weeks of age) were housed in 5 per cage with free access to food and tap water under 12 h light and dark cycle (light on 6:00 to 18:00) in a temperature and humidity controlled room. They were acclimated in a laboratory at least 7 days prior to starting experiments. The experimental protocols were approved by the Animal Care and Use Committee of KhonKaen University, Thailand.
# Tacrine hydrochloride (Sigma-Aldrich, St. Louis, Mo.), PNU-282987 hydrochloride (Alamone, Jerusalem, Israel) and test compounds were prepared as suspensions by using 15% tween 80 in distilled water as a vehicle, whereas scopolamine hydrochloride (Sigma-Aldrich, St. Louis, Mo.) and methyllycaconitine citrate (MLA) (Abcam, Cambridge, England) were prepared as a solution by dissolving with 0.9% normal saline solution (NSS). All compounds were administered by intraperitoneal (i.p.) injection in the amount of 5 mL/kg. Test compounds were injected 1 h and scopolamine was administered 30 min before the experiments, whereas MLA was injected 5 min before the test compounds.
# (§1) Amnesia was induced pharmacologically in mice via scopolamine injection (single dose) for 30 min prior to start the experiments. They were divided into vehicle group: receiving 15% tween 80 and 0.9% NSS, amnesia group: receiving scopolamine 1 mg/kg, standard positive control group receiving tacrine 1 mg/kg, and test group: receiving IND8, QND8 at dose 5, 10, 25, 50 μmol/kg, or PNU-282987 3, 10 mg/kg, single dose. All mice were acclimated in an experimental room at least 30 min before the experiments.
# The maze in this experiment is the same apparatus using in locomotor activity test except there is the black partition to close one of three arms. The mice were randomly separated into different treatment groups. They were injected with test compounds and scopolamine at 1 h and 30 min, respectively, before the sample phase. In this phase which one arm of Y-maze was closed by the black partition, each mouse was placed at the end of one arm and allowed to move through 2 arms for 5 min to get familiar with the two opened arms. After 30 min of resting, all arms were opened and the mouse was allowed to move freely through all 3 arms. The maze area and the partition were cleaned with 70% ethanol between each experiment to remove olfactory cues. The number of entries in each arm was counted visually if mice accessed into each arm at least 10 cm. The percentage of unfamiliar arm exploration was calculated as following equation: […]
# [3] = system: scopolamine-induced amnesic mice; test: Object recognition test (ORT); settings: i.p., tacrine 1 mg/kg, IND8, QND8 10 and 50 μmol/kg
# Experimental: FIG. 22 illustrates exploration time to familiar (F) and novel (N) objects of IND8 (A) and QND8 (B) in test phase of ORT. Each mouse was allowed to explore an open field apparatus for 5 min in a habituation phase. After a 24 h period, IND8, QND8, PNU-282987, vehicle (15% Tween80, SH) and tacrine (TC) were injected 1 h and scopolamine (SC) 30 min before sample phase, respectively. Each mouse explored 2 identical objects in the sample phase for 5 min and then placed in its cage for 10 min before the test phase began. In the 5 min of test phase, one of the objects was changed to a new one. The exploration time of these objects was recorded.
# In both data sets, a discrimination index (DI) was calculated and used to evaluate the ability of mice to discriminate between familiar and novel objects. Data are represented in FIG. 23.
# as §1
# The apparatus was made of black polyvinyl chloride (52×52×40 cm). The objects used in this experiment had different visual shapes and colors to be discriminated. They were placed 10 cm from the side wall in the balanced manner. The box area and objects were cleaned with 70% ethanol between each experiment to remove odor cues.
# The mice were randomly divided into different treatment groups. They were allowed to freely explore the open field apparatus for 5 min for habituation in the day prior to the experiments to get familiar with the apparatus. On the experimental day, test compounds injected 1 h, whereas scopolamine administered 30 min before the sample phase (acquisition trial). The mice were placed in the apparatus to explore 2 identical objects. After 10 min of acclimation in their cages, one object was changed to a new one, and mice were allowed to explore these objects for 5 min in the test phase (retention trial). The exploration time of each object was recorded if the nose of mice approached the objects within 3 cm or touched the objects. The discrimination index (DI) was calculated by using (TN−TF)/(TN+TF); TN and TF represented exploration time of new and familiar objects, respectively.
structure (smiles),measurement,setting,value
"Nc1c2c(nc3ccccc13)CCCC2 [Tacrine, reference compound]","Time in target quadrant, water maze vs scopolamine-treated group",[1],significantly improved cognitive deficits
same,"Time in target quadrant, water maze vs scopolamine-treated group",[1]; listed as tacrine,can improve cognitive deficits induced by scopolamine in all test models
same,"Unfamiliar arm exploration / cognitive deficit, modified Y-maze vs scopolamine-treated group",[2],reversed the cognitive deficit induced by scopolamine
same,"Unfamiliar arm exploration / cognitive deficit, modified Y-maze vs scopolamine-treated group",[2]; listed as tacrine,can improve cognitive deficits induced by scopolamine in all test models
same,"Discrimination index / episodic short-term memory, ORT vs scopolamine-treated group",[3],significantly improved episodic short-term memory
same,"Discrimination index / episodic short-term memory, ORT vs scopolamine-treated group",[3]; listed as tacrine,can improve cognitive deficits induced by scopolamine in all test models
